Molecules are shown by their SMILES.

For one assay, the target named is T1, CCR1 (Homo sapiens, UniProt P32246).
T1 construct: host or cells: Non-adherent cells
T1 sequence (P32246 1-355): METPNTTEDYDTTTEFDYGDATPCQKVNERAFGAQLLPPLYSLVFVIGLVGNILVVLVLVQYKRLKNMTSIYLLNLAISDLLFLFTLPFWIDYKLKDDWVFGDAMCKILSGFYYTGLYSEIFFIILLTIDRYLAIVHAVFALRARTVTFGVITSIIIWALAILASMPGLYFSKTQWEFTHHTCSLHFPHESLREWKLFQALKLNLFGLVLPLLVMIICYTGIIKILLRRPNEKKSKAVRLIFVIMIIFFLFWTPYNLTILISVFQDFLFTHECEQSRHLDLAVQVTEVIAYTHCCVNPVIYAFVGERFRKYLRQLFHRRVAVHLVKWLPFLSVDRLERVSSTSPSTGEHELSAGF
As to the kind of experiment: Calcium flux in CCR1 transfected cells, Method A (Fluo-4 NW dye, FLIPR TETRA), MIP-1 alpha at EC80. It is filed as cell-based. To be noted: cells stably expressing recombinant CCR1 and G-alpha-16, 1 hour at room temperature. As for the experimental part: (§1) Compounds are assessed for the ability to block the interaction of CCR1 and MIP-1α in a functional cellular assay measuring calcium flux in CCR1 transfected cells.
Method A: Non-adherent cells purchased from Chemicon Corporation (HTS005C), stably expressing recombinant CCR1 and G-alpha-16 are grown in RPMI 1640 medium (Mediatech 10-080-CM) supplemented with 10% heat-inactivated FBS, 0.4 mg/mL Geneticin and penicillin/streptomycin. On the day of the assay, the cells are transferred to a beaker and dye-loaded in bulk using a Fluo-4 NW Calcium Assay Kit with probenecid (Invitrogen F36205) at 0.8E6 cells/mL for 1 hour at room temperature. After 1 hour, they are seeded in a 384-well tissue culture-treated plate at a density of 20,000 cells/well. Appropriately diluted test compound is added to the well to achieve a top concentration of 3,000 nM (diluted 4-fold with 10 doses total). The final concentration of DMSO is 1%. The buffer is HBSS (Invitrogen 14025) with 20 mM HEPES at pH 7.4. The cells are allowed to incubate 1 hour in the dark at room temperature. The plates are transferred to the FLIPR TETRA where MIP-1 alpha in 1% BSA is added at the EC80 final concentration. Wells+/−MIP-1 alpha containing diluted DMSO instead of compound serve as the controls. Intracellular calcium flux is recorded on the FLIPR TETRA, using excitation at 470/495 nm and emission at 515/575 nm. Data are analyzed using Activity Base software.
A general note: Calcium flux is commonly read through the fluorescence of an indicator in the cells.
With `O=C(NCc1cccc(C(F)(F)F)c1)c1cccn2c(-c3ccc(F)cc3)ncc12` [3-(4-Fluorophenyl)-imidazo[1,5-a]pyridine-8-carboxylic acid 3-trifluoromethyl-benzylamide], the IC50 (in general, the concentration that inhibits the measured activity by half) stood at 18 nM. On the same count and under the same terms, the same measure for `O=C(NCc1ccnc(Br)c1)c1cccn2c(-c3ccc(F)cc3)ncc12` [3-(4-Fluorophenyl)-imidazo[1,5-a]pyridine-8-carboxylic acid (2-bromopyridin-4-ylmethyl)-amide]: 11 nM. Regarding `O=C(NCc1cccc(C(F)(F)F)c1)c1cccn2c(-c3ccc(Cl)c(Cl)c3)ncc12` [3-(3,4-Dichlorophenyl)-imidazo[1,5-a]pyridine-8-carboxylic acid 3-trifluoromethyl-benzylamide], the IC50 was 810 nM. For the molecule `CS(=O)(=O)c1cc(CNC(=O)c2cccn3c(-c4ccc(F)cc4)ncc23)ccn1` [3-(4-Fluorophenyl)-imidazo[1,5-a]pyridine-8-carboxylic acid (2-methanesulfonyl-pyridin-4-ylmethyl)-amide], the IC50 was found to be 285 nM. Turning to `O=C(NCc1ccc(Br)nc1)c1cccn2c(-c3ccc(F)cc3)ncc12` [3-(4-Fluorophenyl)-imidazo[1,5-a]pyridine-8-carboxylic acid (6-bromopyridin-3-ylmethyl)-amide], the IC50 came out at 428 nM. With `CS(=O)(=O)c1cccc(CNC(=O)c2cccn3c(-c4ccc(F)cc4)ncc23)c1` [3-(4-Fluorophenyl)-imidazo[1,5-a]pyridine-8-carboxylic acid 3-methanesulfonyl-benzylamide], the IC50 is 305 nM. Same read-out and setting: the same measure for `CCCC(NC(=O)c1cccn2c(-c3ccc(F)cc3)ncc12)c1ccc(S(C)(=O)=O)nc1` (centres unmarked) [3-(4-Fluorophenyl)-imidazo[1,5-a]pyridine-8-carboxylic acid [1-(6-methanesulfonyl-pyridin-3-yl)-butyl]-amide]: 7 nM; for `CS(=O)(=O)c1ccc(CNC(=O)c2cccn3c(-c4ccc(F)cc4)ncc23)cn1` [3-(4-Fluorophenyl)-imidazo[1,5-a]pyridine-8-carboxylic acid (6-methanesulfonyl-pyridin-3-ylmethyl)-amide]: 568 nM.

The target in another assay is T1, CCR1. As to the kind of experiment: Calcium flux in CCR1 transfected cells, Method B (Calcium 4 dye, HAMAMATSU FDSS6000), MIP-1alpha at EC80. It is filed as cell-based. To be noted: cells stably expressing recombinant CCR1 and G-alpha-16, 30 minutes at 37 C then 30 minutes at room temperature. The procedure:
as §1
Method B: Non-adherent cells purchased from Chemicon Corporation (HTS005C), stably expressing recombinant CCR1 and G-alpha-16 are grown in RPMI 1640 medium (Mediatech 10-080-CM) supplemented with 10% FBS, 0.4 mg/mL Geneticin and penicillin/streptomycin. On the day of the assay, the cells are loaded with Calcium 4 dye (Molecular Devices R7448) with Probenecid (Invitrogen P346400) at 8E5 cells/mL for 1 hour at room temperature. After 1 hour, they are seeded in a 384-well tissue culture-treated plate at a density of 20,000 cells/well. Appropriately diluted test compound is added to the well to achieve a top concentration of 3,000 nM (diluted 4-fold with 10 doses total). The final concentration of DMSO is 1%. The buffer is HBSS (Invitrogen 14025) with 20 mM HEPES at pH 7.4. The cells incubate 30 minutes at 37 C and then 30 minutes at room temperature. The plates are transferred to the HAMAMATSU FDSS6000 where MIP-1alpha in 1% BSA is added at the EC80 final concentration. All plates must be read within 4 hours of the start of dye-loading. Wells+/−MIP-1alpha containing diluted DMSO instead of compound serve as the controls. Data are analyzed using Activity Base software.
Turning to `CC[C@H](NC(=O)c1cccn2c(-c3ccc(F)cc3)ncc12)c1ccc(Br)nc1` [3-(4-Fluorophenyl)-imidazo[1,5-a]pyridine-8-carboxylic acid [(S)-1-(6-bromopyridin-3-yl)-propyl]-amide], the IC50 turned out to be 29 nM.

For the molecule `CS(=O)(=O)Nc1ccc(CNC(=O)c2cc(C#N)cc3c2ccn3-c2ccc(F)cc2)cn1` [6-Cyano-1-(4-fluorophenyl)-1H-indole-4-carboxylic acid (6-methanesulfonylamino-pyridin-3-ylmethyl)-amide], the IC50 was found to be 4 nM.

Consider `CN1CCC(NS(=O)(=O)c2ccc(CNC(=O)c3cc(C#N)cc4c3ccn4-c3ccc(F)cc3)cc2)CC1` [6-Cyano-1-(4-fluorophenyl)-1H-indole-4-carboxylic acid 4-(1-methyl-piperidin-4-ylsulfamoyl)-benzylamide], for which the IC50 came out at 18 nM.

For the molecule `CS(=O)(=O)c1ccc(CNC(=O)c2cc(C#N)cc3c2ccn3-c2ccc(F)cc2)cn1` [6-Cyano-1-(4-fluorophenyl)-1H-indole-4-carboxylic acid (6-methanesulfonyl-pyridin-3-ylmethyl)-amide], the half-maximal inhibitory concentration (IC50) was 4 nM. As for `CS(=O)(=O)c1cccc(CNC(=O)c2cncc3c2ccn3-c2ccc(F)cc2)c1` [1-(4-Fluorophenyl)-1H-pyrrolo[2,3-c]pyridine-4-carboxylic acid 3-methanesulfonyl-benzylamide], the IC50 turned out to be 565 nM.

Turning to `CS(=O)(=O)c1cc(C2(NC(=O)c3cc(C#N)cc4c3ccn4-c3ccc(F)cc3)CC2)ccn1` [6-Cyano-1-(4-fluorophenyl)-1H-indole-4-carboxylic acid [1-(2-methanesulfonyl-pyridin-4-yl)-cyclopropyl]-amide], the IC50 amounted to 0.8 nM.
